We go through four sequences from patent US20070128217A1 (priority 2003, published 2007).

For experiment [1], the system named is rabbit serum obtained by immunizing a rabbit with the SARS-CoV strain Frankfurt 1. It is filed as binding. Further details: Binding of a rabbit serum to linear peptides / Binding of a rabbit serum to looped peptides / Rabbit serum linear peptides / Rabbit serum looped peptides / Binding of a rabbit serum to linear peptides of protein N of SARS-CoV Urbani (Rabbit serum linear peptides) / Binding of a rabbit serum to looped/cyclic peptides of protein N of SARS-CoV Urbani (Rabbit serum looped peptides): unit not given here.

Experiment [2] concerns control sera (pooled serum of ten healthy LUMC hospital workers; commercial negative donor pooled serum from the Dutch bloodbank). It is filed as binding, human. Further details: Binding of Control serum LUMC to linear peptides / Binding of Control serum Blood-bank to linear peptides / Binding of Control serum LUMC to looped peptides / Binding of Control Serum Blood-Bank to Looped peptides / Binding of Control serum LUMC to linear peptides of the protein M of SARS-CoV Urbani / Binding of Control serum Blood-bank to linear peptides of the protein M of SARS-CoV Urbani / Binding of Control serum LUMC to looped peptides of the protein M of SARS-CoV Urbani / Binding of Control Serum Blood-Bank to Looped peptides of the protein M of SARS-CoV Urbani: unit not given here.

In experiment [3] the test system is antibodies in sera from SARS patients (sera 1a, 1b, 2, 6, 37, 62, London, SARS-yellow, SARS-green). The experiment is classed as binding, human. Also noted: Binding of serum 6 to linear peptides of protein X1 of SARS-CoV Urbani / Binding of serum 37 to linear peptides of protein X1 of SARS-CoV Urbani / Binding of serum 6 to looped/cyclic peptide (PEPSCAN-ELISA) / Binding of serum 37 to looped/cyclic peptide (PEPSCAN-ELISA) / Binding of serum 37 to looped/cyclic peptides of protein X1 of SARS-CoV Urbani / Binding of serum 6 to linear peptides of protein X2 / Binding of serum 37 to linear peptides of protein X2 / Binding of serum 37 to looped/cyclic peptides of protein X2 of SARS-CoV Urbani / Binding of serum 6 to linear peptides of protein M of SARS-CoV Urbani / Binding of serum 37 to linear peptides of protein M of SARS-CoV Urbani / Binding of serum 6 to looped/cyclic peptides of protein M of SARS-CoV Urbani / Binding of serum 37 to looped/cyclic peptides of protein M of SARS-CoV Urbani / Binding of serum 6 to linear peptides of protein X3 of SARS-CoV Urbani / Binding of serum 37 to linear peptides of protein X3 of SARS-CoV Urbani / Binding of serum 37 to looped/cyclic peptides of protein X3 of SARS-CoV Urbani / Binding of serum 6 to linear peptides of protein X4 of SARS-CoV Urbani / Binding of serum 37 to linear peptides of protein X4 of SARS-CoV Urbani / Binding of serum 37 to looped/cyclic peptides of protein X4 of SARS-CoV Urbani / Binding of serum 6 to linear peptides of protein X5 of SARS-CoV Urbani / Binding of serum 37 to linear peptides of protein X5 of SARS-CoV Urbani / Binding of serum 37 to looped/cyclic peptides of protein X5 of SARS-CoV Urbani / Binding of serum 6 to linear peptides of protein N of SARS-CoV Urbani / Binding of serum 37 to linear peptides of protein N of SARS-CoV Urbani / Binding of serum 6 to linear peptide (PEPSCAN-ELISA) / Binding of serum 1a to looped/cyclic peptides of protein N of SARS-CoV Urbani / Binding of serum 1b to looped/cyclic peptides of protein N of SARS-CoV Urbani / Binding of serum 2 to looped/cyclic peptides of protein N of SARS-CoV Urbani / Binding of serum 6 to looped/cyclic peptides of protein N of SARS-CoV Urbani / Binding of serum 37 to looped/cyclic peptides of protein N of SARS-CoV Urbani / Binding of serum 62 to looped/cyclic peptides of protein N of SARS-CoV Urbani / Binding of serum London to looped/cyclic peptides of protein N of SARS-CoV Urbani / Binding of serum SARS-green to looped/cyclic peptides of protein N of SARS-CoV Urbani: unit not given here.

Consider TLIVFTSCELYHYQE, for which, in experiment [1], the “Rabbit serum linear peptides” value is listed as 0.5 and the “Rabbit serum looped peptides” value was 0.8. In experiment [2], the “Binding of Control Serum Blood-Bank to Looped peptides” value stood at 0.7, the “Binding of Control serum Blood-bank to linear peptides” value is 0.7, the “Binding of Control serum LUMC to linear peptides” value turned out to be 0.8 and the “Binding of Control serum LUMC to looped peptides” value was 1.0. Moreover, in experiment [3], the “Binding of serum 1a to linear peptides of protein X4 of SARS-CoV Urbani” value is 0.8, the “Binding of serum 1a to looped/cyclic peptides of protein X4 of SARS-CoV Urbani” value stood at 0.8, the “Binding of serum 1b to linear peptides of protein X4 of SARS-CoV Urbani” value is 0.8 and the “Binding of serum 1b to looped/cyclic peptides of protein X4 of SARS-CoV Urbani” value is listed as 0.8. Moreover, in experiment [3], the “Binding of serum 2 to linear peptides of protein X4 of SARS-CoV Urbani” value is reported as 0.5, the “Binding of serum 2 to looped/cyclic peptides of protein X4 of SARS-CoV Urbani” value came to 0.8, the “Binding of serum 6 to linear peptides of protein X4 of SARS-CoV Urbani” value is given as 0.6 and the “Binding of serum 6 to looped/cyclic peptides of protein X4 of SARS-CoV Urbani” value is given as 0.6. Moreover, in experiment [3], the “Binding of serum 37 to linear peptides of protein X4 of SARS-CoV Urbani” value was 0.9, the “Binding of serum 37 to looped/cyclic peptides of protein X4 of SARS-CoV Urbani” value is 0.9, the “Binding of serum 62 to linear peptides of protein X4 of SARS-CoV Urbani” value is 0.9 and the “Binding of serum 62 to looped/cyclic peptides of protein X4 of SARS-CoV Urbani” value is recorded as 0.8. In addition, in experiment [3], the “Binding of serum London to linear peptides of protein X4 of SARS-CoV Urbani” value was 0.8, the “Binding of serum London to looped/cyclic peptides of protein X4 of SARS-CoV Urbani” value came out at 0.3, the “Binding of serum SARS-green to linear peptides of protein X4 of SARS-CoV Urbani” value came to 1.1 and the “Binding of serum SARS-green to looped/cyclic peptides of protein X4 of SARS-CoV Urbani” value was determined as 1.0. In experiment [3], the “Binding of serum SARS-yellow to linear peptides of protein X4 of SARS-CoV Urbani” value came out at 0.6 and the “Binding of serum SARS-yellow to looped/cyclic peptides of protein X4 of SARS-CoV Urbani” value is listed as 0.9.
For TLVLKMLHSSSLTSL, in experiment [1], the “Binding of a rabbit serum to linear peptides” value was 0.2 and the “Binding of a rabbit serum to looped peptides” value was 0.4. Further, in experiment [2], the “Binding of Control Serum Blood-Bank to Looped peptides” value is reported as 0.9, the “Binding of Control serum Blood-bank to linear peptides” value was determined as 0.9, the “Binding of Control serum LUMC to linear peptides” value is reported as 0.5 and the “Binding of Control serum LUMC to looped peptides” value was determined as 0.7. Besides, in experiment [3], the “Binding of serum 1a to linear peptides of protein X2” value was 0.7, the “Binding of serum 1a to looped/cyclic peptides of protein X2 of SARS-CoV Urbani” value is 0.7, the “Binding of serum 1b to linear peptides of protein X2” value is recorded as 0.5 and the “Binding of serum 1b to looped/cyclic peptides of protein X2 of SARS-CoV Urbani” value is listed as 0.6. Besides, in experiment [3], the “Binding of serum 2 to linear peptides of protein X2” value amounted to 0.4, the “Binding of serum 2 to looped/cyclic peptides of protein X2 of SARS-CoV Urbani” value is 0.5, the “Binding of serum 6 to linear peptides of protein X2” value turned out to be 0.4 and the “Binding of serum 6 to looped/cyclic peptides of protein X2 of SARS-CoV Urbani” value came out at 1.0. In experiment [3], the “Binding of serum 37 to linear peptides of protein X2” value came out at 0.5, the “Binding of serum 37 to looped/cyclic peptides of protein X2 of SARS-CoV Urbani” value is 0.5, the “Binding of serum 62 to linear peptides of protein X2” value came out at 0.6 and the “Binding of serum 62 to looped/cyclic peptides of protein X2 of SARS-CoV Urbani” value was 0.7. Further, in experiment [3], the “Binding of serum London to linear peptides of protein X2” value was 0.4, the “Binding of serum London to looped/cyclic peptides of protein X2 of SARS-CoV Urbani” value was 1.0, the “Binding of serum SARS-green to linear peptides of protein X2” value was determined as 0.4 and the “Binding of serum SARS-green to looped/cyclic peptides of protein X2 of SARS-CoV Urbani” value worked out at 0.3. Also, in experiment [3], the “Binding of serum SARS-yellow to linear peptides of protein X2” value is 0.4 and the “Binding of serum SARS-yellow to looped/cyclic peptides of protein X2 of SARS-CoV Urbani” value turned out to be 0.5.
As for TMSLYMAISPKFTTS, in experiment [1], the “Binding of a rabbit serum to linear peptides” value was 0.2 and the “Binding of a rabbit serum to looped peptides” value came to 0.5. In addition, in experiment [2], the “Binding of Control Serum Blood-Bank to Looped peptides” value is recorded as 0.8, the “Binding of Control serum Blood-bank to linear peptides” value was 0.5, the “Binding of Control serum LUMC to linear peptides” value was determined as 0.7 and the “Binding of Control serum LUMC to looped peptides” value was found to be 0.8. In addition, in experiment [3], the “Binding of serum 1a to linear peptides of protein X2” value was 0.5, the “Binding of serum 1a to looped/cyclic peptides of protein X2 of SARS-CoV Urbani” value was 0.6, the “Binding of serum 1b to linear peptides of protein X2” value was determined as 0.0 and the “Binding of serum 1b to looped/cyclic peptides of protein X2 of SARS-CoV Urbani” value is 0.6. In experiment [3], the “Binding of serum 2 to linear peptides of protein X2” value stood at 0.4, the “Binding of serum 2 to looped/cyclic peptides of protein X2 of SARS-CoV Urbani” value was found to be 0.4, the “Binding of serum 6 to linear peptides of protein X2” value turned out to be 0.3 and the “Binding of serum 6 to looped/cyclic peptides of protein X2 of SARS-CoV Urbani” value is on record as 0.4. Further, in experiment [3], the “Binding of serum 37 to linear peptides of protein X2” value came out at 0.2, the “Binding of serum 37 to looped/cyclic peptides of protein X2 of SARS-CoV Urbani” value was 0.5, the “Binding of serum 62 to linear peptides of protein X2” value stood at 0.7 and the “Binding of serum 62 to looped/cyclic peptides of protein X2 of SARS-CoV Urbani” value stood at 0.7. For the same sequence, in experiment [3], the “Binding of serum London to linear peptides of protein X2” value is recorded as 0.4, the “Binding of serum London to looped/cyclic peptides of protein X2 of SARS-CoV Urbani” value is listed as 0.2, the “Binding of serum SARS-green to linear peptides of protein X2” value was found to be 0.5 and the “Binding of serum SARS-green to looped/cyclic peptides of protein X2 of SARS-CoV Urbani” value was 0.4. Moreover, in experiment [3], the “Binding of serum SARS-yellow to linear peptides of protein X2” value was 0.0 and the “Binding of serum SARS-yellow to looped/cyclic peptides of protein X2 of SARS-CoV Urbani” value was 0.6.
Regarding TMTTVYHITVSQIQL, in experiment [1], the “Binding of a rabbit serum to linear peptides” value turned out to be 0.7 and the “Binding of a rabbit serum to looped peptides” value was determined as 0.4. Further, in experiment [2], the “Binding of Control Serum Blood-Bank to Looped peptides” value is listed as 0.6, the “Binding of Control serum Blood-bank to linear peptides” value is on record as 0.6, the “Binding of Control serum LUMC to linear peptides” value came out at 0.8 and the “Binding of Control serum LUMC to looped peptides” value was determined as 0.5. Further, in experiment [3], the “Binding of serum 1a to linear peptides of protein X2” value is 0.6, the “Binding of serum 1a to looped/cyclic peptides of protein X2 of SARS-CoV Urbani” value is 0.4, the “Binding of serum 1b to linear peptides of protein X2” value is given as 0.2 and the “Binding of serum 1b to looped/cyclic peptides of protein X2 of SARS-CoV Urbani” value is recorded as 0.4. For the same sequence, in experiment [3], the “Binding of serum 2 to linear peptides of protein X2” value was determined as 0.4, the “Binding of serum 2 to looped/cyclic peptides of protein X2 of SARS-CoV Urbani” value amounted to 0.3, the “Binding of serum 6 to linear peptides of protein X2” value is recorded as 0.5 and the “Binding of serum 6 to looped/cyclic peptides of protein X2 of SARS-CoV Urbani” value was determined as 0.2. Also, in experiment [3], the “Binding of serum 37 to linear peptides of protein X2” value was found to be 0.7, the “Binding of serum 37 to looped/cyclic peptides of protein X2 of SARS-CoV Urbani” value was 0.4, the “Binding of serum 62 to linear peptides of protein X2” value turned out to be 0.3 and the “Binding of serum 62 to looped/cyclic peptides of protein X2 of SARS-CoV Urbani” value is 0.5. Moreover, in experiment [3], the “Binding of serum London to linear peptides of protein X2” value amounted to 0.4, the “Binding of serum London to looped/cyclic peptides of protein X2 of SARS-CoV Urbani” value was 0.2, the “Binding of serum SARS-green to linear peptides of protein X2” value came to 0.2 and the “Binding of serum SARS-green to looped/cyclic peptides of protein X2 of SARS-CoV Urbani” value was 0.3. Besides, in experiment [3], the “Binding of serum SARS-yellow to linear peptides of protein X2” value was 0.7 and the “Binding of serum SARS-yellow to looped/cyclic peptides of protein X2 of SARS-CoV Urbani” value is 0.3.
